Molecular target: T1, CRTH2 (Homo sapiens, UniProt Q9Y5Y4)
T1 sequence (Q9Y5Y4 1-395): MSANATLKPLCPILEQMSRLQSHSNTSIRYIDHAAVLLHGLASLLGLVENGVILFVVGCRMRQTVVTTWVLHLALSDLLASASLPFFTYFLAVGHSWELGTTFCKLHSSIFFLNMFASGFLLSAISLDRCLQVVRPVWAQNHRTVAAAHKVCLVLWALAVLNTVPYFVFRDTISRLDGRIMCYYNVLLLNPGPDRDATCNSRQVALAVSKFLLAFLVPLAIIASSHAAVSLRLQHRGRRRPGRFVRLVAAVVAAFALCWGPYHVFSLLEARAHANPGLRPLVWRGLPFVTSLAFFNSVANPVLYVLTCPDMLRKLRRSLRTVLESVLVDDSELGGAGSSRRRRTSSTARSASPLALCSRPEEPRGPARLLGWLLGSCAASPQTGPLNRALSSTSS
Assay: Radioligand binding Scintillation Proximity Assay ([3H]PGD2, hCRTH2-CHO cell membranes)
Design: host or cells: CHO cells
Details: 1.5 nM [3H]PGD2, hCRTH2-CHO cell membranes, SPA
Method: Adherent CHO cells expressing hCRTH2 (Euroscreen, Belgium) were cultured in 225 cm^2 cell culture flasks (Corning, USA) in 30 ml of medium. After two rinses of phosphate buffered saline (PBS), cells were harvested in 10 ml of PBS containing 1 mM EDTA, centrifuged at 500×g for 5 min at 4° C. and frozen at −80° C. The pellet was re-suspended in 50 mM Tris-HCl, pH 7.4, 2 mM EDTA, 250 mM Sucrose, containing protease inhibitor cocktail tablets, (Complete EDTA-free, Roche, Germany) and incubated 30 min at 4° C. Cells were disrupted by nitrogen cavitation (Parr Instruments, USA) at 4° C. (800 p.s.i. for 30 min), and centrifuged at 500×g for 10 min at 4° C. Pellet containing nuclei and cellular debris was discarded and supernatant was centrifuged 60 min at 4° C. at 45000×g. Membrane pellet was re-suspended in storage buffer (10 mM HEPES/KOH pH 7.4, 1 mM EDTA, 250 mM sucrose, protease inhibitor cocktail tablets) using Dounce homogenization and frozen in liquid nitrogen, and stored at −80° C.
The inhibitory activity can be investigated by a radioligand binding Scintillation Proximity Assay (SPA) (Sawyer et al., Br. J. Pharmocol 2002, 137, 1163-72). The SPA radioligand binding assay was performed at room temperature in binding buffer (10 mM HEPES/KOH pH 7.4, 10 mM MnCl2, with protease inhibitor cocktail tablets), containing 1.5 nM [^3H]PGD2 (Perkin Elmer), 10-50 μg/ml of hCRTH2-CHO cell membrane protein and 2 mg/ml of Wheat-germ agglutinin Sintillation Proximity Assay beads (RPNQ0001, GE-Healthcare) in a final volume of 100 μl in 96 well plates (Corning, USA). Non-specific binding was determined in the presence of 10 μM PGD2 (Cayman, USA). Competing Compounds of Formula (I) were diluted in dimethylsulphoxide so that the total volume of dimethylsulfoxide was kept constant at 1% dimethylsulphoxide (Me2SO). Serial dilutions of 100 μM to 100 pM were prepared and 10 μl each of the compounds of Formula (I) stock solutions were added to the binding assay reagents and incubated for 90 min with agitation at room temperature. Binding activity was determined by using a 1450 Micro-beta scintillation counter (Wallac, UK).

SMILES | IC50 [nM]
CS(=O)(=O)c1ccc(N2CCCCC2)c(C#Cc2cc(C#N)ccc2OCC(=O)O)c1 [Example 62, (4-cyano-2-{[5-(methylsulfonyl)-2-piperidin-1-ylphenyl]ethynyl}phenoxy)acetic acid] | 202
CCS(=O)(=O)c1ccc(C)c(C#Cc2cc(C#N)ccc2OCC(=O)O)c1 [Example 63, (4-cyano-2-{[5-(ethylsulfonyl)-2-methylphenyl]ethynyl}phenoxy)acetic acid] | 33
Cc1ccc(S(=O)(=O)CCO)cc1C#Cc1cc(C#N)ccc1OCC(=O)O [Example 64, [4-cyano-2-({5-[(2-hydroxyethyl)sulfonyl]-2-methylphenyl}ethynyl)phenoxy]acetic acid] | 136
CCCS(=O)(=O)c1cccc(C#Cc2nc(C)ccc2OCC(=O)O)c1 [Example 66, [(6-methyl-2-{[3-(propylsulfonyl)phenyl]ethynyl}pyridin-3-yl)oxy]acetic acid] | 193
Cc1ccc(S(=O)(=O)C(C)C)cc1C#Cc1cc(C#N)ccc1OCC(=O)O [Example 68, (4-cyano-2-{[5-(isopropylsulfonyl)-2-methylphenyl]ethynyl}phenoxy)acetic acid] | 12
CS(=O)(=O)c1cncc(C#Cc2cc(C#N)ccc2OCC(=O)O)c1 [Example 69, (4-cyano-2-{[5-(methylsulfonyl)pyridin-3-yl}ethynyl]phenoxy)acetic acid] | 186
CN(c1cncc(C#Cc2cc(C#N)ccc2OCC(=O)O)c1)S(C)(=O)=O [Example 72, [4-cyano-2-({5-[methyl(methylsulfonyl)amino]pyridin-3-yl}ethynyl)phenoxy]acetic acid] | 364
Cc1ccc(S(=O)(=O)CCCO)cc1C#Cc1cc(C#N)ccc1OCC(=O)O [Example 73, [4-cyano-2-({5-[(3-hydroxypropyl)sulfonyl]-2-methylphenyl}ethynyl)phenoxy]acetic acid] | 57
CCCS(=O)(=O)c1cccc(C#Cc2c(Cl)cccc2OCC(=O)O)c1 [Example 74, (3-chloro-2-{[3-(propylsulfonyl)phenyl]ethynyl}phenoxy)acetic acid] | 70
N#Cc1ccc(OCC(=O)O)c(C#Cc2cncc(S(=O)(=O)NCCO)c2)c1 [Example 75, {4-cyano-2-[(5-{[(2-hydroxyethyl)amino]sulfonyl}pyridin-3-yl)ethynyl]phenoxy}acetic acid] | 372
N#Cc1ccc(OCC(=O)O)c(C#Cc2cncc(S(=O)(=O)N3CC(F)(F)C3)c2)c1 [Example 76, [4-cyano-2-({5-[(3,3-difluoroazetidin-1-yl)sulfonyl]pyridin-3-yl}ethynyl)phenoxy]acetic acid] | 171
N#Cc1ccc(OCC(=O)O)c(C#Cc2cncc(S(=O)(=O)N3CCOCC3)c2)c1 [Example 77, (4-cyano-2-{[5-(morpholin-4-ylsulfonyl)pyridin-3-yl]ethynyl}phenoxy)acetic acid] | 360
O=C(O)COc1ccc(Cl)cc1C#Cc1cncc(S(=O)(=O)N2CC(F)(F)C2)c1 [Example 78, [4-chloro-2-({5-[(3,3-difluoroazetidin-1-yl)sulfonyl]pyridin-3-yl}ethynyl)phenoxy]acetic acid] | 40
O=C(O)COc1ccc(Cl)cc1C#Cc1cncc(S(=O)(=O)N2CCOCC2)c1 [Example 79, (4-chloro-2-{[5-(morpholin-4-ylsulfonyl)pyridin-3-yl]ethynyl}phenoxy)acetic acid] | 52
CN(C)S(=O)(=O)c1cccc(C#Cc2cc(Cl)ccc2OCC(=O)O)c1 [Example 80, [4-chloro-2-({3-[(dimethylamino)sulfonyl]phenyl}ethynyl)phenoxy]acetic acid] | 19
CCN(CC)S(=O)(=O)c1ccc(C)c(C#Cc2cc(Cl)ccc2OCC(=O)O)c1 [Example 81, [4-chloro-2-({5-[(diethylamino)sulfonyl]-2-methylphenyl}ethynyl)phenoxy]acetic acid] | 5

SMILES | IC50 [nM]
Cc1ccc(S(=O)(=O)N2CCOCC2)cc1C#Cc1cc(Cl)ccc1OCC(=O)O [Example 82, (4-chloro-2-{[2-methyl-5-(morpholin-4-ylsulfonyl)phenyl]ethynyl}phenoxy)acetic acid] | 5
CNS(=O)(=O)c1ccc(C)c(C#Cc2cc(Cl)ccc2OCC(=O)O)c1 [Example 84, [4-chloro-2-({2-methyl-5-[(methylamino)sulfonyl]phenyl}ethynyl)phenoxy]acetic acid] | 13
Cc1ccc(S(=O)(=O)NC(C)(C)C)cc1C#Cc1cc(Cl)ccc1OCC(=O)O [Example 85, [2-({5-[(tert-butylamino)sulfonyl]-2-methylphenyl}ethynyl)-4-chlorophenoxy]acetic acid] | 7
Cc1ccc(S(=O)(=O)N2CCCCC2)cc1C#Cc1cc(Cl)ccc1OCC(=O)O [Example 88, (4-chloro-2-{[2-methyl-5-(piperidin-1-ylsulfonyl)phenyl]ethynyl}phenoxy)acetic acid] | 7
CS(=O)(=O)c1ccc(C#Cc2cc(Cl)ccc2OCC(=O)O)cc1 [Example 90, (4-chloro-2-{[4-(methylsulfonyl)phenyl]ethynyl}phenoxy)acetic acid] | 154
Cc1ccc(S(=O)(=O)Cc2ccccc2)cc1C#Cc1cc(Cl)ccc1OCC(=O)O [Example 91, (2-{[5-(benzylsulfonyl)-2-methylphenyl]ethynyl}-4-chlorophenoxy)acetic acid] | 7
Cc1ccc(S(=O)(=O)CCc2ccccc2)cc1C#Cc1cc(Cl)ccc1OCC(=O)O [Example 92, [4-chloro-2-({2-methyl-5-[(2-phenylethyl)sulfonyl]phenyl}ethynyl)phenoxy]acetic acid] | 9
Cc1ccc(S(=O)(=O)Cc2ccccc2)cc1C#Cc1cc(C#N)ccc1OCC(=O)O [Example 93, (2-{[5-(benzylsulfonyl)-2-methylphenyl]ethynyl}-4-cyanophenoxy)acetic acid] | 13
Cc1ccc(S(=O)(=O)c2ccccc2)cc1C#Cc1cc(C#N)ccc1OCC(=O)O [Example 94, (4-cyano-2-{[2-methyl-5-(phenylsulfonyl)phenyl]ethynyl}phenoxy)acetic acid] | 11
Cc1ccc(S(=O)(=O)CCc2ccccc2)cc1C#Cc1cc(C#N)ccc1OCC(=O)O [Example 96, [4-cyano-2-({2-methyl-5-[(2-phenylethyl)sulfonyl]phenyl}ethynyl)phenoxy]acetic acid] | 7
Cc1cc(F)c(S(C)(=O)=O)cc1C#Cc1cc(Cl)ccc1OCC(=O)O [Example 97, (4-chloro-2-{[4-fluoro-2-methyl-5-(methylsulfonyl)phenyl]ethynyl}phenoxy)acetic acid] | 8
CS(=O)(=O)Cc1cccc(C#Cc2cc(Cl)ccc2OCC(=O)O)c1 [Example 98, [4-chloro-2-({3-[(methylsulfonyl)methyl]phenyl}ethynyl)phenoxy]acetic acid] | 60
CCCS(=O)(=O)c1cccc(C#Cc2cc(F)ccc2OCC(=O)O)c1 [Example 99, (4-fluoro-2-{[3-(propylsulfonyl)phenyl]ethynyl}phenoxy)acetic acid] | 79
Cc1ccc(S(=O)(=O)N2CCCCC2C)cc1C#Cc1cc(Cl)ccc1OCC(=O)O (centres unmarked) [Example 108, [4-chloro-2-({2-methyl-5-[(2-methylpiperidin-1-yl)sulfonyl]phenyl}ethynyl)-phenoxy]acetic acid] | 2
Cc1ccc(S(=O)(=O)N(C)CC(C)C)cc1C#Cc1cc(Cl)ccc1OCC(=O)O [Example 110, {4-chloro-2-[(5-{[isobutyl(methyl)amino]sulfonyl}-2-methylphenyl)ethynyl]phenoxy}acetic acid] | 5
CCCCN(C)S(=O)(=O)c1ccc(C)c(C#Cc2cc(Cl)ccc2OCC(=O)O)c1 [Example 111, {2-[(5-{[butyl(methyl)amino]sulfonyl}-2-methylphenyl)ethynyl]-4-chlorophenoxy}acetic acid] | 6
